Results taken from patent US4861760A, “Ophthalmological composition of the type which undergoes liquid-gel phase transition” (Merck & Co., Inc., priority 1985, dated 1989).

How the values were obtained:
[1] = compatibility / gelling effect of ingredients in Gelrite solution; assay type: physicochemical; conditions: 0.1 mg/ml added; can be eliminated by adding a small amount of acetic acid
eye = conditions: rabbit, in vivo

Substance | gelling effect in a Gelrite solution [1] | eye irritation (eye)
benzalkonium chloride | slight gelling effect | –
gellan gum | – | not regarded as an eye irritant
